One may read the melting point as the temperature of the solid-liquid transition.

For the compound `CCCCCCCCCCCCCCCCCC(=O)N1C(CCCCCCCCCCCCCCCCC)NC(=O)CC1C(=O)O` (stereo not shown) [ALA17, 17, 2-Heptadecyl-6-oxo-3-stearoylhexahydropyrimidine-4-carboxylic acid], the melting point was 107 to 111 °C. On to `CCCCCC(=O)N1C(CCCCC)NC(=O)CC1C(=O)O` (stereo not shown) [Lipid 1a, 3-Hexanoyl-6-oxo-2-pentylhexahydropyrimidine-4-carboxylic acid], for which the melting point was 55 to 56 °C. In turn, `CCCCCCCCCCCC(=O)N1C(CCCCC)NC(=O)CC1C(=O)O` (stereo not shown) [Lipid 1b, 3-Dodecanoyl-6-oxo-2-pentylhexahydropyrimidine-4-carboxylic acid] gave a melting point of 118 to 120 °C.

For the compound `CCCCCCCCCCCC1NC(=O)CC(C(=O)O)N1C(=O)CCCCC` (stereo not shown) [Lipid 1c, 3-Hexanoyl-6-oxo-2-undecylhexahydropyrimidine-4-carboxylic acid], the melting point was 106 to 107 °C. The figure for `CCCCCCCCCCCC(=O)N1C(CCCCCCCCCCC)NC(=O)CC1C(=O)O` (stereo not shown) [Lipid 1d, 3-Dodecanoyl-6-oxo-2-undecylhexahydropyrimidine-4-carboxylic acid] is 110 to 112 °C. Next, `CCCCCCCCCCCCCCCCCC(=O)N1C(CCCCCCCCCCC)NC(=O)CC1C(=O)O` (stereo not shown) [Lipid 1e, 6-Oxo-3-stearoyl-2-undecylhexahydropyrimidine-4-carboxylic acid]: 105 to 109 °C. Turning to `CCCCCCCCCCCCCCCCCC1NC(=O)CC(C(=O)O)N1C(=O)CCCCCCCCCCC` (stereo not shown) [Lipid 1f, 3-Dodecanoyl-2-heptadecyl-6-oxohexahydropyrimidine-4-carboxylic acid], the melting point lay within 104 to 107 °C.

The values are drawn from patent publication US20110268653A1, “Compositions and Methods Related to Acid Stable Lipid Nanospheres” (The Board of Regents of the University of Texas System, priority 2010, published 2011).
